Consider 1 compound from patent US8158352B2, “Screening of a novel hepatic syndrome and its uses” (Assistance Publique-Hopitaux de Paris, priority 2000, dated 2012).

This assay has as its system hepatic bile of patients with intrahepatic cholestasis, cholesterol microcholelithiasis and MDR3 gene abnormality. In words: Bile lipid composition of the hepatic bile from patients receiving treatment with UDCA. It counts as in vivo, human. The note with it: for Cholesterol saturation index (CSI): calculated from Carey's critical tables. The procedure: The concentration of total bile salts is measured by an enzymatic technique using 3α-hydroxysteroid dehydrogenase (Enzabile, Nycomed, Oslo, Norway). The content of total phospholipids is determined by an enzymatic method in the presence of phospholipase D and choline oxidase. The cholesterol is determined by an enzymatic reaction with cholesterol oxidase or cholesterol esterase. The cholesterol saturation indices for the hepatic bile samples are calculated from Carey's critical tables (J. Lipid Res., 1978, 19, 945-955).
The bile lipid composition of the hepatic bile was studied using samples obtained by radioscopy of the duodenum (patients 2 and 3) or using a T tube (patients 5 and 6). The results obtained in the untreated patients or the patients receiving treatment with UDCA are given respectively in Tables V and VI below.

Where [1] appears, read: Case 5, receiving treatment with UDCA.
The mark [2] stands for this setting: Case 6, receiving treatment with UDCA.

As to `C[C@H](CCC(=O)O)[C@H]1CC[C@H]2[C@@H]3[C@@H](O)C[C@@H]4C[C@H](O)CC[C@]4(C)[C@H]3CC[C@]12C` [UDCA, ursodeoxycholic acid], under setting [1], the “Bile lipid classes: Bile salts (BS)” value came to 47.5 mol %, the “Bile lipid classes: Cholesterol (CH)” value is 16.8 mol %, the “Bile lipid classes: Phospholipids (PL)” value was 35.7 mol % and the “Concentration of bile PL” value worked out at 7.77. Also, under setting [1], the “Lipid ratios: CH/BS” value is reported as 0.35, the “Lipid ratios: CH/PL” value is 0.47, the “Lipid ratios: PL/BS” value was found to be 0.75 and the “Cholesterol saturation index (CSI)” value is 4.0. Under setting [2], the “Bile lipid classes: Bile salts (BS)” value was found to be 72 mol %, the “Bile lipid classes: Cholesterol (CH)” value was determined as 8.2 mol %, the “Bile lipid classes: Phospholipids (PL)” value turned out to be 19.7 mol % and the “Concentration of bile PL” value is on record as 6.03. Moreover, under setting [2], the “Lipid ratios: CH/BS” value was 0.11, the “Lipid ratios: CH/PL” value is on record as 0.42, the “Lipid ratios: PL/BS” value is 0.27 and the “Cholesterol saturation index (CSI)” value is listed as 1.8.
